# Measurements reported in US11135163B2, “Peptide hydrogel properties and its applications” (Kansas State University Research Foundation, priority 2014, dated 2021).
# Assay: Hydrogel formation and gelation time sweep of h9e with commercial mouse blood
# Conditions: all concentrations except 1%
# Method: About 150 μL of the appropriate wt % of peptide solution was added to 150 μL of commercial mouse blood in a small vial. The mixture was pipetted 5 times to ensure continuity and observed for visual hydrogel formation. Visual observation of hydrogel formation was recorded via a Nikon Coolpix L22 camera (FIG. 9).
# Hydrogel gelation time sweep (instantaneous): A time sweep was conducted on the hydrogel and commercial mouse blood mixture. 150 μL of the appropriate wt % of peptide solution was added to 150 μL of commercial mouse blood in a small vial. The mixture was pipetted about 5 times to ensure continuity and added to the rheometer for evaluation. Both storage and loss moduli, G′ and G″ respectively, of the h9e/blood hydrogel were determined using a C-VOR 150 rheometer (Malvern Instruments, Malvern, Worcestershire, United Kingdom). A plate 20 mm in diameter was used with 1% strain and frequency of 1 Hz at a 37° C. temperature for 30 minutes.
# Hydrogel stability gelation time sweep (24 hours post gelatinization): A time sweep was conducted on the hydrogel and commercial mouse blood mixture. 24 hours post gelation. […] Both storage and loss moduli, G′ and G″ respectively, of the h9e/blood hydrogel was determined using a C-VOR 150 rheometer (Malvern Instruments, Malvern, Worcestershire, United Kingdom). […]
substance,measurement,value
"H-FLIVIGSIIGPGGDGPGGD-NH2 [h9e, FLIVIGSIIGPGGDGPGGD]","viscosity, strength and stability 24 hours post gelation versus instantaneous",increased
